# Laboratory results taken from patent publication US12208088B2 (Genentech, Inc., priority 2018, dated 2025).
# Target: HPK1 (Homo sapiens (Human), UniProt Q92918)
# Experiment: HPK1 Lantha binding assay ("Lanth")
# Details: binding assays; Morrison Ki fit
# Procedure, shortened: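 TR-FRET binding competition using 2 nM HPK1, 2 nM Eu-anti-GST antibody and 15 nM Tracer222 at 23 °C. Compound was incubated 1 h with enzyme and antibody, then 1 h after tracer addition, with an 11-point 5-fold dilution series. Ki obtained from a Morrison fit that corrects for tracer concentration and Kd.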
# Chain of HPK1 (Q92918 1-346 limits assumed): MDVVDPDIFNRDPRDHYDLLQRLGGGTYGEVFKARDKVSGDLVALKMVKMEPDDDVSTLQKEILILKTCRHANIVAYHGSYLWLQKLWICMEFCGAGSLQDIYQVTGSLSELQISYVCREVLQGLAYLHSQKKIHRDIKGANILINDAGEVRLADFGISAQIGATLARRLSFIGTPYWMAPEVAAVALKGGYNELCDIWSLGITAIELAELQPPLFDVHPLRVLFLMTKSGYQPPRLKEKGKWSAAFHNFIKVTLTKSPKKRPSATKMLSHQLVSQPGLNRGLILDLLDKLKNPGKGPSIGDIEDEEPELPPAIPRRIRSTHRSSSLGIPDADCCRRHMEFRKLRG
row,SMILES,Ki
1,"N#CCCNC(=O)c1ccc(-c2cnc3c(c2Cl)C2(CC=CC2)CN3)cc1 [Compound 221, 4-(4′-Chloro-1′,2′-dihydrospiro[cyclopentane-1,3′-pyrrolo[2,3-b]pyridin]-3-en-5′-yl)-N-(2-cyanoethyl)benzamide]",303 nM
2,"CC(=O)Nc1cccc(-c2cnc3c(c2Cl)C2(CC=CC2)CN3)c1 [Compound 222, N-(3-(4′-Chloro-1′,2′-dihydrospiro[cyclopentane-1,3′-pyrrolo[2,3-b]pyridin]-3-en-5′-yl)phenyl)acetamide]",275 nM
3,"COCCc1ccc(-c2cnc3c(c2Cl)C2(CC=CC2)CN3)cc1 [Compound 223, 4′-Chloro-5′-(4-(2-methoxyethyl)phenyl)-1′,2′-dihydrospiro[cyclopentane-1,3′-pyrrolo[2,3-b]pyridin]-3-ene]",436 nM
4,"Nc1ccc(-c2cnc3c(c2Cl)C2(CC=CC2)CN3)cc1 [Compound 224, 4-(4′-Chloro-1′,2′-dihydrospiro[cyclopentane-1,3′-pyrrolo[2,3-b]pyridin]-3-en-5′-yl)aniline]",126 nM
5,"Nc1ccc(-c2cnc3c(c2Cl)C2(CC=CC2)CN3)c(F)c1 [Compound 225, 4-(4′-Chloro-1′,2′-dihydrospiro[cyclopentane-1,3′-pyrrolo[2,3-b]pyridin]-3-en-5′-yl)-3-fluoroaniline]",363 nM
6,"CN(C)C(=O)c1cccc(-c2cnc3c(c2Cl)C2(CC=CC2)CN3)c1 [Compound 226, 3-(4′-Chloro-1′,2′-dihydrospiro[cyclopentane-1,3′-pyrrolo[2,3-b]pyridin]-3-en-5′-yl)-N,N-dimethylbenzamide]",14 nM
7,"CN(C)C(=O)c1cccc(-c2cnc3c(c2Cl)C2(CC=CC2)CN3)c1F [Compound 227, 3-(4′-Chloro-1′,2′-dihydrospiro[cyclopentane-1,3′-pyrrolo[2,3-b]pyridin]-3-en-5′-yl)-2-fluoro-N,N-dimethylbenzamide]",11.2 nM
8,"O=C(c1ccc(-c2cnc3c(c2Cl)C2(CC=CC2)CN3)cc1Cl)N1CCC(O)CC1 [Compound 230, (2-Chloro-4-(4′-chloro-1′,2′-dihydrospiro[cyclopentane-1,3′-pyrrolo[2,3-b]pyridin]-3-en-5′-yl)phenyl)(4-hydroxypiperidin-1-yl)methanone]",173 nM
9,"O=C(c1ccc(-c2cnc3c(c2Cl)C2(CC=CC2)CN3)cc1)N1CCOCC1 [Compound 231, (4-(4′-Chloro-1′,2′-dihydrospiro[cyclopentane-1,3′-pyrrolo[2,3-b]pyridin]-3-en-5′-yl)phenyl)(morpholino)methanone]",447 nM
10,"O=C(c1cccc(-c2cnc3c(c2)C2(CC2)CN3)c1F)N1CCCCC1 [Compound 232, (3-(1′,2′-dihydrospiro[cyclopropane-1,3′-pyrrolo[2,3-b]pyridin]-5′-y1)-2-fluorophenyl)(piperidin-1-yl)methanone]",33.7 nM
11,"Cc1c(-c2ccc(N)c(C(=O)N(C)C)c2F)cnc2c1C1(CCCCC1)CN2 [Compound 233, 6-Amino-2-fluoro-N,N-dimethyl-3-(4′-methyl-1′,2′-dihydrospiro[cyclohexane-1,3′-pyrrolo[2,3-b]pyridin]-5′-yl)benzamide]",26.1 nM
12,"CC(C)[C@@H]1C[C@]12CNc1ncc(-c3ccc(N)c(C(=O)N(C)C)c3F)cc12 [Compound 234b, 6-Amino-2-fluoro-3-((1S,2S)-2-isopropyl-1′,2′-dihydrospiro[cyclopropane-1,3′-pyrrolo[2,3-b]pyridin]-5′-yl)-N,N-dimethylbenzamide]",38 nM
13,"NC(=O)C1(c2cccc(-c3cnc4c(c3Cl)C3(CC=CC3)CN4)c2)CC1 [Compound 236, 1-(3-(4′-Chloro-1′,2′-dihydrospiro[cyclopentane-1,3′-pyrrolo[2,3-b]pyridin]-3-en-5′-yl)phenyl)cyclopropane-1-carboxamide]",33.2 nM
14,"Clc1c(-c2ccc(Oc3ncccn3)cc2)cnc2c1C1(CC=CC1)CN2 [Compound 237, 4′-Chloro-5′-(4-(pyrimidin-2-yloxy)phenyl)-1′,2′-dihydrospiro[cyclopentane-1,3′-pyrrolo[2,3-b]pyridin]-3-ene]",283 nM
15,"Cc1cc(C)n(-c2cccc(-c3cnc4c(c3Cl)C3(CC=CC3)CN4)c2)n1 [Compound 238, 4′-Chloro-5′-(3-(3,5-dimethyl-1H-pyrazol-1-yl)phenyl)-1′,2′-dihydrospiro[cyclopentane-1,3′-pyrrolo[2,3-b]pyridin]-3-ene]",22.9 nM
16,"Cc1c(CC#N)ccnc1-c1cccc(-c2cnc3c(c2)C2(CC2)CN3)c1 [Compound 242, 2-(2-(3-(1′,2′-Dihydrospiro[cyclopropane-1,3′-pyrrolo[2,3-b]pyridin]-5′-yl)phenyl)-3-methylpyridin-4-yl)acetonitrile]",11.7 nM
17,"N#CC1CCCCN1C(=O)c1cccc(-c2cnc3c(c2)C2(CC2)CN3)c1F (stereo not drawn) [Compound 244, 1-(3-(1′,2′-Dihydrospiro[cyclopropane-1,3′-pyrrolo[2,3-b]pyridin]-5′-yl)-2-fluorobenzoyl)piperidine-2-carbonitrile]",8.25 nM
18,"CC(C)(C)c1nnc(-c2cccc(-c3cnc4c(c3Cl)C3(CC=CC3)CN4)c2)o1 [Compound 247, 2-(tert-Butyl)-5-(3-(4′-chloro-1′,2′-dihydrospiro[cyclopentane-1,3′-pyrrolo[2,3-b]pyridin]-3-en-5′-yl)phenyl)-1,3,4-oxadiazole]",253 nM

# Other lines, results leading:
row,Ki,SMILES
1,46.7 nM,"CN(C)C(=O)c1c(N)ccc(-c2cnc3c(c2Cl)[C@]2(CC[C@@H](C(N)=O)CC2)CN3)c1F [Compound 235a, (1r,4r)-5′-(4-Amino-3-(dimethylcarbamoyl)-2-fluorophenyl)-4′-chloro-1′,2′-dihydrospiro[cyclohexane-1,3′-pyrrolo[2,3-b]pyridine]-4-carboxamide]"
2,11.9 nM,"CN(C)C(=O)c1c(N)ccc(-c2cnc3c(c2Cl)[C@]2(CC[C@H](C(N)=O)CC2)CN3)c1F [Compound 235b, (1s,4s)-5′-(4-Amino-3-(dimethylcarbamoyl)-2-fluorophenyl)-4′-chloro-1′,2′-dihydrospiro[cyclohexane-1,3′-pyrrolo[2,3-b]pyridine]-4-carboxamide]"
3,44.8 nM,"CN(C)C(=O)c1c(N)ccc(-c2cnc3c(c2Cl)[C@]2(CC[C@@H](C#N)CC2)CN3)c1F [Compound 241a, 6-Amino-3-((1r,4r)-4′-chloro-4-cyano-1′,2′-dihydrospiro[cyclohexane-1,3′-pyrrolo[2,3-b]pyridin]-5′-yl)-2-fluoro-N,N-dimethylbenzamide]"
4,12.5 nM,"CN(C)C(=O)c1c(N)ccc(-c2cnc3c(c2Cl)[C@]2(CC[C@H](C#N)CC2)CN3)c1F [Compound 241b, 6-Amino-3-((1s,4s)-4′-chloro-4-cyano-1′,2′-dihydrospiro[cyclohexane-1,3′-pyrrolo[2,3-b]pyridin]-5′-yl)-2-fluoro-N,N-dimethylbenzamide]"
5,42 nM,"Cn1cc(C2CCCCN2C(=O)c2cccc(-c3cnc4c(c3)[C@]3(CC[C@H](O)CC3)CN4)c2F)cn1 (stereo partly drawn) [Compound 245a, (2-Fluoro-3-((1s,4s)-4-hydroxy-1′,2′-dihydrospiro[cyclohexane-1,3′-pyrrolo[2,3-b]pyridin]-5′-yl)phenyl)((R)-2-(1-methyl-1H-pyrazol-4-yl)piperidin-1-yl)methanone]"
6,6.01 nM,"CN(C)C(=O)c1c(N)ccc(-c2cnc3c(c2Cl)[C@]2(CC[C@H](CO)CC2)CN3)c1F [Compound 248a, 6-Amino-3-((1s,4s)-4′-chloro-4-(hydroxymethyl)-1′,2′-dihydrospiro[cyclohexane-1,3′-pyrrolo[2,3-b]pyridin]-5′-yl)-2-fluoro-N,N-dimethylbenzamide]"
